Activity calls are given as the source filed them. No cut-off for these calls is given here.
What was measured:
[1] = target: T1, Androgen receptor (Homo sapiens, UniProt P10275); assay: Antagonist activity at androgen receptor (unknown origin) in human LNCap-ARR2PB-eGFP cells by measuring fluorescence intensity measured after 3 days by transcriptional assay; type: cell-based
T1 sequence (P10275 whole entry): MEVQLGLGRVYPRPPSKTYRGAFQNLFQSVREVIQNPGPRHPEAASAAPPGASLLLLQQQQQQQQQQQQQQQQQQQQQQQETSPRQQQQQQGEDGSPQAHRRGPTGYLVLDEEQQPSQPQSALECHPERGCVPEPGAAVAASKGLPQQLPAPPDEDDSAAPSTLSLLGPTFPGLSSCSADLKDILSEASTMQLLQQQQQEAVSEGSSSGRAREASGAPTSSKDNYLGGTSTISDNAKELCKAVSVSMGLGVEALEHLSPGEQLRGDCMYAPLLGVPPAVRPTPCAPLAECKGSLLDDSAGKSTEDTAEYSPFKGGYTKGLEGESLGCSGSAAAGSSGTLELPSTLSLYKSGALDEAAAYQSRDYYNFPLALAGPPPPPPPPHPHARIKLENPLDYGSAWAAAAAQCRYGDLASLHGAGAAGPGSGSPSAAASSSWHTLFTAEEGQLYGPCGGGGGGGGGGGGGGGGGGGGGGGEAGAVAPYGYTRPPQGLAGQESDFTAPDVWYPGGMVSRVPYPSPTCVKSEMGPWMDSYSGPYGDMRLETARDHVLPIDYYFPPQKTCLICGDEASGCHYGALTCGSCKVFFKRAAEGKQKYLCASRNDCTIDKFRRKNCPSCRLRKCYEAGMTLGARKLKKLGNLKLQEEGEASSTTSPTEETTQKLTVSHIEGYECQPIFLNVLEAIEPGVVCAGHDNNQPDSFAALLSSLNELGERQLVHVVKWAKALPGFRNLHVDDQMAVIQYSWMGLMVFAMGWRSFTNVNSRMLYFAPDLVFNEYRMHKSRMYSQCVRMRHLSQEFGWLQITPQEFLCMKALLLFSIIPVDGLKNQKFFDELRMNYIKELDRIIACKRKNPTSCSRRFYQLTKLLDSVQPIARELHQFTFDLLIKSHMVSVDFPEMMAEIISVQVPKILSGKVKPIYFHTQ

[2] = test system: LNCaP; assay: Cytotoxicity against human LNCAP cells assessed as inhibition of cell proliferation by MTT assay; type: functional, cell-based
[3] = Cytotoxicity against human Chang liver cells assessed as inhibition of cell proliferation by MTT assay; type: toxicity, cell-based
[4] = Cytotoxicity against human GES1 cells assessed as inhibition of cell proliferation by MTT assay; type: toxicity, cell-based
[5] = Inhibition of PSA secretion in human LNCaP ARR2PB-eGFP cells measured after 3 days by immuno assay; type: functional, cell-based; details: 72 h
[6] = Antagonist activity at mineralocorticoid receptor (unknown origin) transfected in PC-3 cells assessed as inhibition of […]-stimulated transcriptional activity after 3 days by dual luciferase reporter assay; type: cell-based; details: Homo sapiens, PC-3, 72 h
[7] = target: T1, Androgen receptor
[8] = target: T2, Androgen receptor (Homo sapiens, UniProt P10275, F877L); assay: Antagonist activity at androgen receptor F877L mutant (unknown origin) expressed in PC-3 cells assessed as inhibition of transcriptional activity measured after 24 hrs by dual luciferase assay; type: cell-based
[9] = target: T3, Androgen receptor (Homo sapiens, UniProt P10275, F877L/T878A); assay: Antagonist activity at androgen receptor F877L/T877A dual mutant (unknown origin) expressed in PC-3 cells assessed as inhibition of transcriptional activity measured after 24 hrs by dual luciferase assay; type: cell-based
[10] = target: T2, Androgen receptor; assay: Antagonist activity at androgen receptor F877L mutant in human PC-3 cells assessed as inhibition of transcriptional activity measured after 24 hrs by luminescence based microplate reader assay; type: cell-based
[11] = target: T3, Androgen receptor; assay: Antagonist activity at androgen receptor F876L/T877A mutant in human PC-3 cells assessed as inhibition of transcriptional activity measured after 24 hrs by luminescence based microplate reader assay; type: cell-based
[12] = Antagonist activity at androgen receptor T878G mutant (unknown origin) expressed in PC-3 cells assessed as inhibition of transcriptional activity measured after 24 hrs by dual luciferase assay; type: cell-based; details: Homo sapiens, PC-3, 24 h
[13] = target: T4, Androgen receptor (Homo sapiens) (UniProt P10275); assay: Antagonist activity at human AR AF2 assessed as inhibition of fluorescent-labelled D11-FxxLF peptide Co-activator to receptor by TR-FRET assay; details: filed as antagonist
T4 sequence (whole entry): T1 sequence (P10275 whole entry)

[14] = test system: LNCaP; assay: Antitumor activity against human LNCAP cells xenografted in CB17-SCID mouse model assessed as inhibition of tumor growth at 100 mg/kg/day, po measured upto 4 weeks; type: functional, organism-based
[15] = test system: LNCaP; assay: Antitumor activity against human LNCAP cells xenografted in CB17-SCID mouse model assessed as inhibition of tumor growth at 40 mg/kg/day, po measured upto 4 weeks; type: functional, organism-based
[16] = Toxicity in CB17 SCID mouse xenografted with human LNCAP cells assessed as body weight loss at 100 mg/kg/day,po measured upto 4 weeks; type: organism-based; details: in vivo, 672 h

T3 sequence (P10275 whole entry F877L/T878A): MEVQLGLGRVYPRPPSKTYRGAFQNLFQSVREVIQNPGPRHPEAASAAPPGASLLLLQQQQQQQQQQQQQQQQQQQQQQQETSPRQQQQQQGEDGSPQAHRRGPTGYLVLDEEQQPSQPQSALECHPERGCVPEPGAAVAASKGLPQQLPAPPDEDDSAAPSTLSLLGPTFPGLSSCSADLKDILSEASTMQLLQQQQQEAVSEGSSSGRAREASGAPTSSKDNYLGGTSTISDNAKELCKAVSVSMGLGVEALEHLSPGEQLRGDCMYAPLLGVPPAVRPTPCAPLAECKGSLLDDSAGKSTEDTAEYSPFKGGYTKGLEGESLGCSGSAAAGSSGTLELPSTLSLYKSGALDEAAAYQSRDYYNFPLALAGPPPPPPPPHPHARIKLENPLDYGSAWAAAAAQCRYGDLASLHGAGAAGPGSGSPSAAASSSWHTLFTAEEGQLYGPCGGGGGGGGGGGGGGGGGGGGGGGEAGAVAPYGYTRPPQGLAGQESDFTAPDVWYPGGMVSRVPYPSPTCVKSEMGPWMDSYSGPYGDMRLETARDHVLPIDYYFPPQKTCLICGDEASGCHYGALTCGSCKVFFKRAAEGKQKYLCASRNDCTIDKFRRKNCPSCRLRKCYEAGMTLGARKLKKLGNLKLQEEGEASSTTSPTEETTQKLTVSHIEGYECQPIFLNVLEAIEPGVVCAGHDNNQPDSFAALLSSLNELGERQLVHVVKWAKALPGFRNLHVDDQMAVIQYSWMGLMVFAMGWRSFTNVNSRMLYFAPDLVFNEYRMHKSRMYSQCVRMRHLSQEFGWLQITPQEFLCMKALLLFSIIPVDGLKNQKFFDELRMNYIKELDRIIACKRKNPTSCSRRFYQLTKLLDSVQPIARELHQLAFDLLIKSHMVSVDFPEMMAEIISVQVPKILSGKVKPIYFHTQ
T2 sequence (P10275 whole entry F877L): as the sequence (P10275 whole entry F877L/T878A) above, with A878T counted along it

| SMILES | IC50 [1] | further results |
| --- | --- | --- |
| N#Cc1ccc(-n2ccc(CC(=O)Nc3ccc(F)nc3)n2)cc1Cl | 0.069 µM | IC50 [2]: 6.23 µM; IC50 [3]: > 1000 µM; IC50 [4]: > 1000 µM; IC50 [5]: 0.89 µM; IC50 [6]: 5.54 µM; Kd [7]: 20.5 µM; IC50 [8]: 0.46 µM; IC50 [9]: 0.27 µM; IC50 [10]: 0.17 µM; IC50 [11]: 0.27 µM; IC50 [12]: 0.045 µM; Activity [13]: Active; Activity [14]: Active; Activity [15]: Active; Activity [16]: Non-Toxic |
| N#Cc1ccc(-n2ccc(CCNC(=O)c3ccc(F)cc3)n2)cc1C(F)(F)F | > 25 µM |  |
| CNC(=O)c1ccc(N2C(=S)N(c3ccc(C#N)c(C(F)(F)F)c3)C(=O)C2(C)C)cc1F [ENZALUTAMIDE] |  | IC50 [2]: 26.3 µM; IC50 [3]: 64.7 µM; IC50 [4]: 96.9 µM; IC50 [5]: 0.48 µM; IC50 [6]: 0.13 µM |
| N#Cc1ccc(C(=O)NCCCc2ccn(-c3ccc(C#N)c(C(F)(F)F)c3)n2)cc1 | > 25 µM |  |
| CC(O)c1cc(C(=O)N[C@H](C)Cn2ccc(-c3ccc(C#N)c(Cl)c3)n2)n[nH]1 (stereo partly specified) |  | IC50 [12]: 0.69 µM |
| N#Cc1ccc(-n2ccc(CC(=O)Nc3ccc(F)c(F)c3)n2)cc1C(F)(F)F | 0.21 µM |  |
| O=C(Cc1ccn(-c2ccc([N+](=O)[O-])c(C(F)(F)F)c2)n1)Nc1ccc(F)cc1 | 0.34 µM |  |
| N#Cc1ccc(-n2ccc(CC(=O)Nc3ccc(F)cc3)n2)cc1Cl | 0.22 µM |  |
| N#Cc1ccc(NC(=O)c2ccn(-c3ccc(C#N)c(C(F)(F)F)c3)n2)cc1 | > 25 µM |  |
| N#Cc1ccc(-n2ccc(CNC(=O)c3ccc([N+](=O)[O-])cc3)n2)cc1C(F)(F)F | 1.85 µM |  |
| N#Cc1ccc(-n2ccc(CCCNC(=O)c3ccc([N+](=O)[O-])cc3)n2)cc1C(F)(F)F | > 25 µM |  |
| O=C(Cc1ccn(-c2ccc([N+](=O)[O-])c(C(F)(F)F)c2)n1)Nc1ccc(F)nc1 | 0.36 µM |  |
| N#Cc1ccc(-n2ccc(CC(=O)Nc3ccc(F)cn3)n2)cc1Cl | 0.17 µM |  |
| N#Cc1ccc(-n2ccc(C(=O)Nc3ccc(F)cn3)n2)cc1C(F)(F)F | > 25 µM |  |
| N#Cc1ccc(-n2ccc(C(=O)Nc3ccc(F)cc3)n2)cc1C(F)(F)F | > 25 µM |  |
| Cc1ccc(NC(=O)Cc2ccn(-c3ccc(C#N)c(C(F)(F)F)c3)n2)cc1 | 4.53 µM |  |
| N#Cc1ccc(-n2ccc(C(=O)Nc3ccncc3)n2)cc1C(F)(F)F | > 25 µM |  |
| N#Cc1ccc(-n2ccc(C(=O)Nc3ccc(F)nc3)n2)cc1C(F)(F)F | > 25 µM |  |
| Cc1cn(-c2ccc(C#N)c(C(F)(F)F)c2)nc1CNC(=O)c1ccc([N+](=O)[O-])cc1 | 0.45 µM |  |
| Cc1cn(-c2ccc(C#N)c(C(F)(F)F)c2)nc1CNC(=O)c1ccc(C#N)cc1 | 14.9 µM |  |
| N#Cc1ccc(-n2cc(-c3ccccc3)c(CNC(=O)c3ccc(F)cc3)n2)cc1C(F)(F)F | > 25 µM |  |
| CC(O)c1cc(C(=O)NCc2ccn(-c3ccc(C#N)c(C(F)(F)F)c3)n2)n[nH]1 (stereo unspecified) | > 25 µM |  |

Further lines, with some results ahead:

| IC50 [1] | SMILES | further results |
| --- | --- | --- |
| 1.15 µM | N#Cc1ccc(-n2ccc(CNC(=O)c3ccc(Cl)cc3)n2)cc1C(F)(F)F |  |
| 6.34 µM | N#Cc1cc(NC(=O)Cc2ccn(-c3ccc(C#N)c(C(F)(F)F)c3)n2)ccc1F |  |
| > 25 µM | N#Cc1ccc(-n2ccc(CCCNC(=O)c3ccc(F)cc3)n2)cc1C(F)(F)F |  |
| > 25 µM | N#Cc1ccc(-n2ccc(NC(=O)c3ccc(F)cc3)n2)cc1C(F)(F)F |  |
| > 25 µM | N#Cc1ccc(-n2ccc(CNS(=O)(=O)c3ccc(F)cc3)n2)cc1C(F)(F)F |  |
| > 25 µM | N#Cc1ccc(C(=O)NCCc2ccn(-c3ccc(C#N)c(C(F)(F)F)c3)n2)cc1 |  |
| 0.34 µM | N#Cc1ccc(-n2ccc(CC(=O)Nc3ccc(F)cn3)n2)cc1C(F)(F)F |  |
| 0.3 µM | N#Cc1ccc(C(=O)NCc2ccn(-c3ccc(C#N)c(C(F)(F)F)c3)n2)cc1 |  |
| 0.05 µM | N#Cc1ccc(NC(=O)Cc2ccn(-c3ccc(C#N)c(C(F)(F)F)c3)n2)cc1 |  |
| > 25 µM | N#Cc1ccc(-n2ccc(CNC(=O)c3ccc(C(F)(F)F)cc3)n2)cc1C(F)(F)F |  |
| 0.78 µM | N#Cc1ccc(-n2ccc(CNC(=O)c3ccc(F)nc3)n2)cc1C(F)(F)F |  |
| 9.2 µM | COc1ccc(NC(=O)Cc2ccn(-c3ccc(C#N)c(C(F)(F)F)c3)n2)cc1 |  |
| > 25 µM | N#Cc1ccc(-n2ccc(NC(=O)Nc3ccc(F)cc3)n2)cc1C(F)(F)F |  |
| 16.2 µM | N#Cc1ccc(-n2cc(C(F)(F)F)c(CNC(=O)c3ccc(F)cc3)n2)cc1C(F)(F)F |  |
| > 25 µM | N#Cc1ccc(-n2ccc(CCNC(=O)c3ccc([N+](=O)[O-])cc3)n2)cc1C(F)(F)F |  |
| 0.22 µM | Cc1cn(-c2ccc(C#N)c(C(F)(F)F)c2)nc1CNC(=O)c1ccc(F)cc1 |  |
| 2.57 µM | O=C(Cc1ccn(-c2ccc([N+](=O)[O-])c(C(F)(F)F)c2)n1)Nc1ccc(F)cn1 |  |
| > 25 µM | N#Cc1ccc(-n2ccc(CC(=O)Nc3ccncc3)n2)cc1C(F)(F)F |  |
| 0.76 µM | N#Cc1ccc(-n2ccc(CNC(=O)c3ccc(F)cc3)n2)cc1C(F)(F)F |  |
| > 25 µM | CC(C)(O)c1ccc(C(=O)NCc2ccn(-c3ccc(C#N)c(C(F)(F)F)c3)n2)cc1 |  |
| > 25 µM | N#Cc1ccc(-n2ccc(CNC(=O)Nc3ccc(F)cc3)n2)cc1C(F)(F)F |  |
| 5.82 µM | N#Cc1ccc(-n2ccc(CNC(=O)c3ccc(F)cn3)n2)cc1C(F)(F)F |  |
| 0.08 µM | N#Cc1ccc(-n2ccc(CC(=O)Nc3ccc([N+](=O)[O-])cc3)n2)cc1C(F)(F)F |  |
| > 25 µM | CNC(=O)c1ccc(C(=O)NCc2ccn(-c3ccc(C#N)c(C(F)(F)F)c3)n2)cc1F |  |
| 0.12 µM | N#Cc1ccc(-n2ccc(CC(=O)Nc3ccc(F)cc3)n2)cc1C(F)(F)F | IC50 [2]: 5.85 µM; IC50 [3]: > 1000 µM; IC50 [4]: > 1000 µM; IC50 [5]: 3.91 µM; IC50 [6]: 4.43 µM; Kd [7]: 10 µM; IC50 [8]: 0.91 µM; IC50 [9]: 0.25 µM; IC50 [10]: 0.91 µM; IC50 [11]: 0.25 µM; IC50 [12]: 0.08 µM; Activity [13]: Active |
| 0.14 µM | N#Cc1ccc(-n2ccc(CC(=O)Nc3ccc(F)nc3)n2)cc1C(F)(F)F | IC50 [2]: 8.84 µM; IC50 [3]: > 1000 µM; IC50 [4]: > 1000 µM; IC50 [5]: 1.75 µM; IC50 [6]: 16.3 µM; Kd [7]: 8.99 µM; IC50 [8]: 1.31 µM; IC50 [9]: 1.12 µM; IC50 [10]: 1.31 µM; IC50 [11]: 1.12 µM; IC50 [12]: 0.31 µM; Activity [13]: Active |

Reference: ChEMBL document CHEMBL5104187, “Discovery of 2-(1-(3-Chloro-4-cyanophenyl)-1H-pyrazol-3-yl)acetamides as Potent, Selective, and Orally Available Antagonists Targeting the Androgen Receptor” (J Med Chem, 2022)
